Several values for one entry are separate records, joined by “and”; a condition that tells them apart may be missing. Identical values can stand only once. Inconclusive results and toxic doses are left out. Rule for the calls: active = survival T/C of 150% or more; inactive = T/C below 125% in these data.
Test system: P388 leukemia ip, CD2F1 mice, survival T/C
Assay: NCI In Vivo Anticancer Drug Screen. Data for tumor model P388 Leukemia (intraperitoneal) in CD2F1 (CDF1) mice
Settings: endpoint: median survival time, higher = longer survival
Protocol: The antitumor activity of compounds was measured in mice bearing transplantable tumors. Survival or tumor size were measured and the results are expressed as the measurement made in the treated group (T) divided by the measurement made in the vehicle treated control group (C). The tumor model used in this assay is P388 Leukemia (intraperitoneal) in CD2F1 (CDF1) mice

[1] = dose: 50.0 mg/kg/injection, schedule: Q01DX005 (ip), vehicle: Klucel (hydroxypropylcellulose) (HPC)
[2] = dose: 100.0 mg/kg/injection, schedule: Q01DX005 (ip), vehicle: Klucel (hydroxypropylcellulose) (HPC)
[3] = dose: 200.0 mg/kg/injection, schedule: Q01DX005 (ip), vehicle: Klucel (hydroxypropylcellulose) (HPC)
[4] = dose: 50.0 mg/kg/injection, schedule: Q01DX009 (ip), vehicle: Klucel (hydroxypropylcellulose) (HPC)
[5] = dose: 50.0 mg/kg/injection, schedule: Q01DX009 (ip), vehicle: saline with Tween-80
[6] = dose: 100.0 mg/kg/injection, schedule: Q01DX009 (ip), vehicle: saline with Tween-80
[7] = dose: 120.0 mg/kg/injection, schedule: Q01DX005 (ip), vehicle: saline with Tween-80
[8] = dose: 240.0 mg/kg/injection, schedule: Q01DX005 (ip), vehicle: saline with Tween-80
[9] = dose: 25.0 mg/kg/injection, schedule: Q01DX009 (ip), vehicle: saline with Tween-80
[10] = dose: 50.0 mg/kg/injection, schedule: Q01DX005 (ip), vehicle: saline
[11] = dose: 100.0 mg/kg/injection, schedule: Q01DX005 (ip), vehicle: saline
[12] = dose: 200.0 mg/kg/injection, schedule: Q01DX005 (ip), vehicle: saline
[13] = dose: 60.0 mg/kg/injection, schedule: Q01DX005 (ip), vehicle: saline with Tween-80
[14] = dose: 100.0 mg/kg/injection, schedule: Q01DX009 (ip), vehicle: Klucel (hydroxypropylcellulose) (HPC)
[15] = dose: 200.0 mg/kg/injection, schedule: Q01DX009 (ip), vehicle: Klucel (hydroxypropylcellulose) (HPC)
[16] = dose: 50.0 mg/kg/injection, schedule: Q01DX001 (ip), vehicle: Klucel (hydroxypropylcellulose) (HPC)
[17] = dose: 100.0 mg/kg/injection, schedule: Q01DX001 (ip), vehicle: Klucel (hydroxypropylcellulose) (HPC)

Measured: T/C

Cn1c(=O)[nH]c2c(c1=O)CCCN2
inactive: dose: 100.0 mg/kg/injection, schedule: Q04DX002 (ip), vehicle: Klucel (hydroxypropylcellulose) (HPC) 104 % of control | dose: 200.0 mg/kg/injection, schedule: Q04DX002 (ip), vehicle: Klucel (hydroxypropylcellulose) (HPC) 98 % of control | dose: 400.0 mg/kg/injection, schedule: Q04DX002 (ip), vehicle: Klucel (hydroxypropylcellulose) (HPC) 98 % of control

Cc1[nH]n(-c2cc(S(=O)(=O)O)ccc2Cl)c(=O)c1N=Nc1c(NC(=O)c2ccc(N)cc2)ccc2cc(S(=O)(=O)O)ccc12
inactive: [1] 96 % of control | [2] 105 % of control | [3] 115 % of control

CCCCC1(CC)COC(C)(c2ccccc2)OC1 (stereo not given)
inactive: dose: 75.0 mg/kg/injection, schedule: Q01DX009 (ip), vehicle: saline 112 % of control | dose: 150.0 mg/kg/injection, schedule: Q01DX009 (ip), vehicle: saline 110 % of control | dose: 300.0 mg/kg/injection, schedule: Q01DX009 (ip), vehicle: saline 108 % of control

CC(C)c1oc(=O)cc2c1C(O)C1OC(=O)C3(C)C(O)C4OC4C2(C)C13 (stereo not given) (tested in a mixture with another compound)
inactive: dose: 15.0 mg/kg/injection, schedule: Q01DX009 (ip), vehicle: saline with Tween-80 113 % of control | dose: 60.0 mg/kg/injection, schedule: Q01DX009 (ip), vehicle: saline with Tween-80 123 % of control

Cc1cc(Cl)ccc1N=Cc1ccc(C=Nc2ccc(Cl)cc2C)cc1
inactive: dose: 12.5 mg/kg/injection, schedule: Q01DX009 (ip), vehicle: Klucel (hydroxypropylcellulose) (HPC) 94 % of control | dose: 25.0 mg/kg/injection, schedule: Q01DX009 (ip), vehicle: Klucel (hydroxypropylcellulose) (HPC) 95 % of control | [4] 99 % of control

O=[N+]([O-])c1ccc(S/N=C\c2ccccc2)c([N+](=O)[O-])c1
inactive: [5] 97 % of control

CCC#CC(=O)OC
inactive: [5] 94 % of control | [6] 103 % of control | dose: 200.0 mg/kg/injection, schedule: Q01DX009 (ip), vehicle: saline with Tween-80 114 % of control

CSc1nc2c(nc(N)n2C2OC(COC(C)=O)C(OC(C)=O)C(OC(C)=O)C2OC(C)=O)c(=O)n1C (stereo not given)
inactive: [7] 92 % of control | [8] 96 % of control

COc1ccc(-n2c(-c3ccc(-n4c(C)nc5ccccc5c4=O)cc3)n[nH]c2=S)cc1
inactive: dose: 37.5 mg/kg/injection, schedule: Q01DX005 (ip), vehicle: Klucel (hydroxypropylcellulose) (HPC) 102 % of control | dose: 75.0 mg/kg/injection, schedule: Q01DX005 (ip), vehicle: Klucel (hydroxypropylcellulose) (HPC) 105 % of control | dose: 150.0 mg/kg/injection, schedule: Q01DX005 (ip), vehicle: Klucel (hydroxypropylcellulose) (HPC) 104 % of control

C/C=C1\CNC2Cc3c([nH]c4ccccc34)C(c3c(OC)ccc4c5c([nH]c34)C3(C(=O)OC)CC4CC(CC)C3N(CC5)C4)CC1C2C(=O)OC (stereo not given)
inactive: dose: 1.56 mg/kg/injection, schedule: Q01DX009 (ip), vehicle: saline with Tween-80 93 % of control | dose: 3.12 mg/kg/injection, schedule: Q01DX009 (ip), vehicle: saline with Tween-80 90 % of control | dose: 12.5 mg/kg/injection, schedule: Q01DX009 (ip), vehicle: saline with Tween-80 93 % of control | [9] 90 % of control

OCCCOCCCO
inactive: [10] 109 % of control | [11] 101 % of control | [12] 114 % of control

OC(COc1c2ccccc2nc2ccccc12)COc1c2ccccc2nc2ccccc12
inactive: [13] 104 % of control | [7] 101 % of control | [8] 101 % of control

O=c1[nH]cn[nH]1
inactive: [10] 101 % of control | [11] 98 % of control | [12] 95 % of control

COc1cc2c(cc1C1COc3cc4occc4cc3C1=O)OCO2 (stereo not given)
inactive: dose: 12.5 mg/kg/injection, schedule: Q01DX005 (ip), vehicle: Klucel (hydroxypropylcellulose) (HPC) 97 % of control | dose: 25.0 mg/kg/injection, schedule: Q01DX005 (ip), vehicle: Klucel (hydroxypropylcellulose) (HPC) 95 % of control | [1] 92 % of control | [2] 95 % of control | [3] 95 % of control

C(=C\c1ccccn1)/c1ccc(/C=C/c2ccccn2)cc1
inactive: [13] 98 % of control | [7] 103 % of control | [8] 97 % of control

CC(C)N(c1nccc(F)n1)C(C)C
inactive: dose: 25.0 mg/kg/injection, schedule: Q01DX005 (ip), vehicle: saline with Tween-80 103 % of control | dose: 50.0 mg/kg/injection, schedule: Q01DX005 (ip), vehicle: saline with Tween-80 101 % of control | dose: 100.0 mg/kg/injection, schedule: Q01DX005 (ip), vehicle: saline with Tween-80 103 % of control | dose: 200.0 mg/kg/injection, schedule: Q01DX005 (ip), vehicle: saline with Tween-80 104 % of control

COC12C=CC(=O)N1CCC2 (stereo not given)
inactive: dose: 7.5 mg/kg/injection, schedule: Q01DX005 (ip), vehicle: DMSO 90 % of control | dose: 15.0 mg/kg/injection, schedule: Q01DX005 (ip), vehicle: DMSO 101 % of control | dose: 30.0 mg/kg/injection, schedule: Q01DX005 (ip), vehicle: DMSO 101 % of control

CCCC/C=C/C=C/C=C/CCCCCCCC(=O)OC(COC(=O)CCCCCCC/C=C/C1C=CC(CCCC)C(C(=O)O)C1C(=O)O)COC(=O)CCCCCCC/C=C/C1C=CC(CCCC)C(C(=O)O)C1C(=O)O (stereo not given)
inactive: [4] 101 % of control | [14] 111 % of control | [15] 108 % of control

COc1ccc(C(=O)c2coc3cc4c(cc23)OCO4)c(O)c1
inactive: [16] 88 % of control | [17] 88 % of control | dose: 200.0 mg/kg/injection, schedule: Q01DX001 (ip), vehicle: Klucel (hydroxypropylcellulose) (HPC) 88 % of control

OC(CNc1c2ccccc2nc2ccccc12)COc1c2ccccc2nc2ccccc12 (stereo not given)
inactive: [13] 95 % of control | [7] 92 % of control | [8] 100 % of control

CCN(CC)Cc1cc(N=Nc2c(O)ccc3c(N=Nc4ccc(O)c(CN(CC)CC)c4)c(O)ccc23)ccc1O
inactive: [1] 108 % of control | [2] 109 % of control

O=C(Nc1ccc(N=C=S)cc1)c1cc(Br)cc(Br)c1O
inactive: [16] 101 % of control | [17] 99 % of control

N=Nc1c(OC(=O)Nc2ccccc2)[nH]c2ccccc12
inactive: [1] 90 % of control | [2] 90 % of control | [3] 87 % of control

CN1C(=O)c2ccc3c4ccc5c6c(ccc(c7ccc(c2c37)C1=O)c64)C(=O)N(c1ccccc1)C5=O
inactive: [1] 87 % of control | [2] 86 % of control | [3] 86 % of control

OC1C2CCCC1C(c1ccccc1)NC2c1ccccc1 (stereo not given)
inactive: dose: 100.0 mg/kg/injection, schedule: Q04DX003 (ip), vehicle: saline 100 % of control and 94 % of control | dose: 200.0 mg/kg/injection, schedule: Q04DX003 (ip), vehicle: saline 100 % of control and 94 % of control | dose: 400.0 mg/kg/injection, schedule: Q04DX003 (ip), vehicle: saline 100 % of control

O=[N+]([O-])c1ccc(-c2nc(/C=N/N3CCS(=O)(=O)CC3)cs2)o1
inactive: [9] 99 % of control | [5] 99 % of control | [6] 100 % of control

CCCCCC(O)CC(O)CC(=O)CCCC(=O)CC(O)CC(=O)CCCCCC(O)CC(O)CC(=O)CCCC(=O)CC(O)CC(=O)CCCC(C)=O (stereo not given) (tested in a mixture with another compound)
inactive: dose: 0.62 mg/kg/injection, schedule: Q01DX005 (ip), vehicle: DMSO 91 % of control | dose: 1.25 mg/kg/injection, schedule: Q01DX005 (ip), vehicle: DMSO 91 % of control | dose: 2.5 mg/kg/injection, schedule: Q01DX005 (ip), vehicle: DMSO 90 % of control | dose: 5.0 mg/kg/injection, schedule: Q01DX005 (ip), vehicle: DMSO 92 % of control | dose: 10.0 mg/kg/injection, schedule: Q01DX005 (ip), vehicle: DMSO 100 % of control | dose: 20.0 mg/kg/injection, schedule: Q01DX005 (ip), vehicle: DMSO 93 % of control

Cc1c(O)ccc(C(=O)C(=O)C(C)C)c1O
inactive: [4] 115 % of control | [14] 116 % of control | [15] 116 % of control

Reference: PubChem BioAssay AID330 (DTP/NCI, 2004)
